Legend:
[1] = target: 72 kDa type IV collagenase (Homo sapiens, UniProt P08253); experiment: In vitro inhibition of Matrix metalloprotease-2
[2] = Area under curve determined after peroral administration at a dose of 10 mg/kg in cynomolgus monkey; assay type: ADME, organism-based, Macaca fascicularis; design: dose 10 mg/kg, route oral; conditions: in vivo, po
[3] = Oral bioavailability in cynomolgus monkey; assay type: ADME, organism-based, Macaca fascicularis; conditions: in vivo
[4] = Area under curve determined after intravenous administration at a dose of 3 mg/kg in cynomolgus monkey; assay type: ADME, organism-based, Macaca fascicularis; design: dose 3 mg/kg, route intravenous; conditions: in vivo
Stromelysin-1 = Stromelysin-1 (Homo sapiens, UniProt P08254); experiment: In vitro inhibition of Matrix metalloprotease-3
[5] = Half life determined after intravenous administration at a dose of 3 mg/kg in cynomolgus monkey; assay type: ADME, organism-based, Macaca fascicularis; design: dose 3 mg/kg, route intravenous; conditions: in vivo
[6] = Area under curve determined after peroral administration at a dose of 3 mg/kg in cynomolgus monkey; assay type: ADME, organism-based, Macaca fascicularis; design: dose 3 mg/kg, route oral; conditions: in vivo, po
Interstitial collagenase = target: T1, Interstitial collagenase (Homo sapiens, UniProt P03956); experiment: In vitro inhibition of Matrix metalloprotease-1.
T1 sequence (P03956 whole entry): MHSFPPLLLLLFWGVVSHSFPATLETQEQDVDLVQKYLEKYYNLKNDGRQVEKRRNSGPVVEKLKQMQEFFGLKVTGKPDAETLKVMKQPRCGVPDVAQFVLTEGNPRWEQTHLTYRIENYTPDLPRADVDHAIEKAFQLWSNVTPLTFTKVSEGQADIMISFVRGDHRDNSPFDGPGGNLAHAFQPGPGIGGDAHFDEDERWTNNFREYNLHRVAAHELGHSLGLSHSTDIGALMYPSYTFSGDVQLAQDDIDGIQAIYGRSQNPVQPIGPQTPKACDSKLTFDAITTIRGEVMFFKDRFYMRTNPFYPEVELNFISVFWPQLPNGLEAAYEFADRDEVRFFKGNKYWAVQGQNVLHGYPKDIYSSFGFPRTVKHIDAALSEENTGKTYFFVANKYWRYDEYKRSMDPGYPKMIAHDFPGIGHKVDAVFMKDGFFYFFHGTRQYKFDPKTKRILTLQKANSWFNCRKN

[7] = Half life after iv administration in cynomolgus monkey; assay type: ADME, organism-based, Macaca fascicularis; conditions: in vivo
[8] = Oral Bioavailability in rat; assay type: ADME, organism-based; conditions: in vivo
[9] = Half life determined in rat by intravenous administration; assay type: ADME, organism-based; conditions: in vivo
[10] = Bioavailability determined after oral administration in marmoset; assay type: ADME, organism-based; conditions: callitrichinae sp., in vivo

Stromelysin-1, sequence (P08254 whole entry): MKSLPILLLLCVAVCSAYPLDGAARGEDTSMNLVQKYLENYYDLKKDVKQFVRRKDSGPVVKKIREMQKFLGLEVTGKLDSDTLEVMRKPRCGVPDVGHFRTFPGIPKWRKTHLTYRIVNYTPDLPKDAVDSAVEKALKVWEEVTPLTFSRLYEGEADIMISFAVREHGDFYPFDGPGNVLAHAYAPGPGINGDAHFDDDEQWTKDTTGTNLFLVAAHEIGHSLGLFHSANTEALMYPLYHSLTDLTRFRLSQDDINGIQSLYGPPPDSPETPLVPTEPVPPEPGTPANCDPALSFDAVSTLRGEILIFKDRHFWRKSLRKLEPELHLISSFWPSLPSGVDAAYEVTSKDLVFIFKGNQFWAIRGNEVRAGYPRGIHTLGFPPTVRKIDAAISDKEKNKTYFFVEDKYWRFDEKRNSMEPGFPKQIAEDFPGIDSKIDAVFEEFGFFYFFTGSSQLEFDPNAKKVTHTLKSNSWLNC
72 kDa type IV collagenase, sequence (P08253 whole entry): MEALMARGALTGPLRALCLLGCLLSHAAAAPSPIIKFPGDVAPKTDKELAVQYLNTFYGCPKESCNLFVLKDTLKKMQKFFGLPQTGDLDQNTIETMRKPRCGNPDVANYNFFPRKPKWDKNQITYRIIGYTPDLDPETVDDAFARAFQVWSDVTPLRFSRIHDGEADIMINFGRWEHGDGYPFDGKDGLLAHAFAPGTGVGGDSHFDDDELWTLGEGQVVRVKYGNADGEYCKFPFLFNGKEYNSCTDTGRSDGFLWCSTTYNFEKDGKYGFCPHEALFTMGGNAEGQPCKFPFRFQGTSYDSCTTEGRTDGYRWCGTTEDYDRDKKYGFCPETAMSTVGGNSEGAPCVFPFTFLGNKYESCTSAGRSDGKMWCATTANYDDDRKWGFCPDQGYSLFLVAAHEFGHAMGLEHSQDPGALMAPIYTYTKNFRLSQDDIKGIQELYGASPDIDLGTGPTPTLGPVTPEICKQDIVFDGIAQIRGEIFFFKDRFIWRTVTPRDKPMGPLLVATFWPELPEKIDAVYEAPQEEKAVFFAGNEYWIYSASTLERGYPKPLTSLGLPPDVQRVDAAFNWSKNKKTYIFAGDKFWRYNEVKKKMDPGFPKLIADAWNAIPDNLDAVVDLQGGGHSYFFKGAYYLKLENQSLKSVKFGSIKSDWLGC

| SMILES | IC50 [1] [µM] | IC50 (Stromelysin-1) [nM] | half-life [5] [h] | IC50 (Interstitial collagenase) [µM] | other results |
| --- | --- | --- | --- | --- | --- |
| CN1C(=O)N(CC(COc2ccc(-c3ccc(C#N)cc3)cc2)N(O)C=O)C(=O)C1(C)C (stereo unspecified) | 58 | 9.1 | 2.5 | – | AUC [2]: 11.8 uM hr l-1; bioavailability [3]: 23%; AUC [4]: 15.2 uM hr l-1 |
| CC1(C)NC(=O)N(CCC(COc2ccc(-c3ccc(C#N)cc3)cc2)N(O)C=O)C1=O (stereo unspecified) | 6.9 | 35 | 12.7 | 14 | AUC [6]: 2.4 uM hr l-1; bioavailability [3]: 6%; AUC [4]: 47.5 uM hr l-1 |
| CCN1C(=O)N(CC(COc2ccc(-c3ccc(C#N)cc3)cc2)N(O)C=O)C(=O)C1(C)C (stereo unspecified) | 12 | 27 | 1.8 | 2.4 | AUC [4]: 12.3 uM hr l-1 |
| CC1(C)CC(=O)N(CC(COc2ccc(-c3ccc(C#N)cc3)cc2)N(O)C=O)C(=O)C1 (stereo unspecified) | 25 | 37 | – | 0.36 | – |
| N#Cc1ccc(-c2ccc(OCC(Cc3ccc(F)cc3)N(O)C=O)cc2)cc1 (stereo unspecified) | – | 180 | – | 14 | half-life [7]: < 1 h |
| N#Cc1ccc(-c2ccc(OCCC(=O)O)cc2)cc1 | 8 | > 10 | – | – | – |
| CN1C(=O)N(CCC(COc2ccc(-c3ccc(C#N)cc3)cc2)N(O)C=O)C(=O)C1(C)C (stereo unspecified) | 45 | 17 | 0.5 | > 10 | AUC [2]: 1.8 uM hr l-1; bioavailability [3]: 6%; AUC [4]: 8 uM hr l-1 |
| N#Cc1ccc(-c2ccc(OCCN(O)C=O)cc2)cc1 | 0.4 | 0.062 | – | > 0.05 | – |
| N#Cc1ccc(-c2ccc(OCC(CN3C(=O)c4ccccc4C3=O)N(O)C=O)cc2)cc1 (stereo unspecified) | 37 | 21 | 0.3 | > 10 | – |
| N#Cc1ccc(-c2ccc(OCCC(=O)NO)cc2)cc1 | 0.032 | 0.057 | – | 0.0033 | – |
| N#Cc1ccc(-c2ccc(OCC(c3ccc(F)cc3)N(O)C=O)cc2)cc1 (stereo unspecified) | – | 300 | – | > 10 | half-life [7]: < 1 h |
| N#Cc1ccc(-c2ccc(OCC(CSc3ccccc3)N(O)C=O)cc2)cc1 (stereo unspecified) | – | 36 | 0.3 | 4.1 | half-life [7]: < 1 h |
| CC(COc1ccc(-c2ccc(C#N)cc2)cc1)N(O)C=O (stereo unspecified) | 76 | 620 | – | > 10 | bioavailability [8]: 33%; half-life [9]: 1.6 h |
| N#Cc1ccc(-c2ccc(OCC(CN3C(=O)CNC3=O)N(O)C=O)cc2)cc1 (stereo unspecified) | 8.2 | 14 | 7.3 | 2.4 | AUC [6]: 68 uM hr l-1; bioavailability [3]: 100%; AUC [4]: 59.8 uM hr l-1 |
| CC1(C)NC(=O)N(CC(COc2ccc(-c3ccc(C#N)cc3)cc2)N(O)C=O)C1=O (stereo unspecified) | 7.8 | 24 | 7.7 | 2.1 | AUC [6]: 27.2 uM hr l-1; bioavailability [10]: 85%; bioavailability [3]: 110%; AUC [4]: 24 uM hr l-1 |
| N#Cc1ccc(-c2ccc(OCC(COc3ccccc3)N(O)C=O)cc2)cc1 (stereo unspecified) | – | 130 | – | > 10 | half-life [7]: < 1 h |
| Cc1ccc(=O)n(CC(COc2ccc(-c3ccc(C#N)cc3)cc2)N(O)C=O)n1 (stereo unspecified) | 3.4 | 37 | 0.5 | 4.2 | – |
| CC(=O)N(O)CCOc1ccc(-c2ccc(C#N)cc2)cc1 | 5.9 | – | – | – | – |
| CC(COc1ccc(-c2ccc(C#N)cc2)cc1)C(=O)NO (stereo unspecified) | 19 | 45 | – | 2.5 | bioavailability [8]: 7%; half-life [9]: 0.3 h |
| N#Cc1ccc(-c2ccc(OCCNC(=O)NO)cc2)cc1 | > 100 | 80 | – | > 0.05 | – |
| CC(C)CC(COc1ccc(-c2ccc(C#N)cc2)cc1)N(O)C=O (stereo unspecified) | – | 120 | – | > 10 | half-life [7]: < 1 h |
| N#Cc1ccc(-c2ccc(OCCN(O)C(N)=O)cc2)cc1 | 35 | > 100 | – | > 0.05 | – |
| N#Cc1ccc(-c2ccc(OCC(CN3C(=O)CCC3=O)N(O)C=O)cc2)cc1 (stereo unspecified) | 5.2 | 11 | 0.6 | > 10 | – |
